Consider three compounds from article PMC11578424, “Discovery of novel 2,4-diarylaminopyrimidine hydrazone derivatives as potent anti-thyroid cancer agents capable of inhibiting FAK” (Journal of Enzyme Inhibition and Medicinal Chemistry, 2024).

In data set [1] the target is T1, FAK (Homo sapiens, UniProt Q05397). The data set can be described thus: Kinase inhibition assay (Kinase-Glo Plus). The format is biochemical. The following applies: 10 µM ATP. From the text:
It measures kinase activity by quantitating the amount of ATP remaining in solution following a kinase reaction. The luminescent signal from the assay is correlated with the amount of ATP present and is inversely correlated with the amount of kinase activity.
For orientation: In Kinase-Glo more light means more ATP remaining.

For data set [2], the system named is thyroid cancer cells TPC-1. The data set can be described thus: Wound healing assay. The format is cell-based. Conditions: TPC-1 cells, various durations. As to the method:
TCP-1 cells are seeded into a 6-well cell culture plate and cultured in an incubator at 37 °C with 5% CO2. Once the cells uniformly cover the bottom of the well, a vertical line is drawn in the centre of each well to mark the initial scratch. Fresh medium is replaced and different concentrations of 14f are added. Photographs are taken to document the healing at 0 h, 24 h, 36 h and 48 h post-scratch. Images are processed using ImageJ software. Data analysis is performed using GraphPad Prism software version 8.0.

In data set [3] the test system is thyroid cancer cells TPC-1. In words: MTT antiproliferative assay. The format is cell-based. As to the method: Thyroid cancer cells TCP-1 were provided by Wuhan Servicebio Co., Ltd. TCP-1 cells are cultured in RPMI-1640 medium supplemented with 10% foetal bovine serum (FBS), 100 U/mL penicillin, and 0.1 mg/mL streptomycin. All cells are maintained in a humidified incubator at 37 °C with 5% CO2.
The TCP-1 cell line is seeded into a 96-well plate and incubated under conditions of 37 °C and 5% CO2. After the cells adhere, different concentrations of compounds are added and the incubation continues for 48 h under the same conditions. Subsequently, MTT reagent is added to the medium and the incubation is continued for an additional 4 h at 37 °C. After the incubation, the medium is aspirated, and 150 μL of DMSO solution is added to dissolve the purple-blue crystals by shaking. The absorbance of the solution is measured at a wavelength of 490 nm. The IC50 value of the compounds is calculated using SPSS software version 20.0.
On the technique in general: Tetrazolium dyes change colour on reduction, which living cells bring about.

The test system of data set [4] is thyroid cancer cells TPC-1. The data set can be described thus: Transwell migration assay. The following applies: TPC-1 cells, 48 h. The format is cell-based. The method, then:
A 24-well plate is filled with 500 μL of RPMI-1640 medium containing 20% serum per well, and Transwell chambers are placed in the wells. TCP-1 cells are resuspended in serum-free medium and mixed with compound 14f, then added to the upper chamber of the Transwell chambers. The 24-well plates are incubated at 37 °C with 5% CO2 for 48 h. After incubation, the plates are removed, and the chambers are immersed in 4% paraformaldehyde and fixed at room temperature for 10 min. Following fixation, 0.1% crystal violet staining solution is added to the 24-well plates, and the chambers are stained at room temperature for 30 min. After staining, the plates are washed, the upper layer of cells is gently wiped off with a cotton swab, and the chambers are air-dried. Images are captured using a microscope.

In another data set the target is EGFR (Homo sapiens, UniProt P00533). In words: Kinase inhibition assay (Kinase-Glo Plus). The format is biochemical. The following applies: Figure 3A; 10 µM ATP; read-out: IC50 (nmol/L) EGFR. The method, then:
(§1) The 50 µl reaction mixture contains 40 mM Tris, pH 7.4, 10 mM MgCl2, 0.1 mg/ml BSA, 1 mM DTT, 10 µM ATP, Kinase and the enzyme substrate. The compound was diluted in 10% DMSO and 5 µl of the dilution was added to a 50 µl reaction so that the final concentration of DMSO is 1% in all of the reactions. The assay was performed using a Kinase-Glo Plus luminescence kinase assay kit. It measures kinase activity by quantitating the amount of ATP remaining in solution following a kinase reaction. The luminescent signal from the assay is correlated with the amount of ATP present and is inversely correlated with the amount of kinase activity. The IC50 values were calculated using nonlinear regression with normalised dose-response fit using Prism GraphPad software.

For a further data set, the target named is ALK (Homo sapiens, UniProt Q9UM73). In words: Kinase inhibition assay (Kinase-Glo Plus). Format: biochemical. Conditions: Figure 3A; 10 µM ATP; read-out: IC50 (nmol/L) ALK. The method, then:
as §1

The target in a further data set is ROS1 (Homo sapiens, UniProt P08922). In words: Kinase inhibition assay (Kinase-Glo Plus). The format is biochemical. Conditions: Figure 3A; 10 µM ATP; read-out: IC50 (nmol/L) ROS1. As to the method:
as §1

The target of data set [5] is T1, FAK. The data set can be described thus: Western blot of FAK and its phosphorylation sites in TPC-1 cells. Format: cell-based. Conditions: TPC-1 cells, 50, 100 and 200 nmol/L, 48 h. As to the method: Different concentrations of compound 14f are applied to TCP-1 cells for 48 h, after which the cells are collected and lysed in RIPA lysis buffer (Solarbio, R0010). Protein concentration is determined using the BCA Protein Concentration Assay Kit (Solarbio, PC0020). Proteins were denatured using 4X SDS-PAGE loading buffer (Solarbio, P1016) at 100 °C for 10 min. The denatured protein samples are separated by SDS-PAGE electrophoresis. Proteins are transferred from the gel to nitrocellulose (NC) membrane (Pall Corporation, P/N 66485) and blocked with 5% non-fat milk for 1 h at room temperature. After washing with TBST, the primary antibody is added and incubated overnight at 4 °C. The membrane is washed with TBST and then incubated with the secondary antibody at room temperature for 1–2 h. The membrane is washed again with TBST, and the protein bands are visualised using an ECL (Solarbio, PE0010) ultra-sensitive luminescent reagent, followed by imaging with a chemiluminescence imaging analyser (Cytiva, […] ImageQuant 800, JPN). The ladder used for Western Blot experiments was purchased from Thermo Scientific (Thermo Scientific, catalog number:26616). […]

Data set [6] concerns thyroid cancer cells TPC-1. In words: EdU staining assay. Format: cell-based. The following applies: TPC-1 cells, 48 h. The method, then: TCP-1 cells are treated with compound 14f, followed by the addition of an equal volume of 1X EdU working solution to the drug-containing medium, and incubated under conditions of 37 °C and 5% CO2 for 4 h. After incubation, the cells are fixed with 4% paraformaldehyde for 15 min. The fixative is then removed, and the cells are permeabilized with PBS containing 0.3% Triton X-100 at room temperature. After washing, the Click reaction working solution is added and incubated at 37 °C for 30 min. The cells are then washed and stained with a prepared Hoechst staining solution for 10 min to stain the cell nuclei. After staining, the staining solution is removed, the cells are washed, and images are captured and saved using a fluorescence microscope.

In data set [7] the test system is TPC-1 cells. In words: Cell cycle distribution. Conditions: 48-h treatment. The format is cell-based.
Data set [8] relates to TPC-1 cells. The data set can be described thus: Colony formation assay. The format is cell-based. The following applies: 5-day treatment. As to the method: TCP-1 cells are plated at a density of 10,000 to 20,000 cells per well in a 6-well plate. After cell adhesion, the cells are treated with different concentrations of compound 14f and cultured for 5 days in an incubator. At the end of the culture period, the medium is aspirated, and the cells are washed three times with PBS. The cells are then fixed with 4% paraformaldehyde for 20 min at room temperature. After fixation, the fixative is removed, and the cells are stained with 0.1% crystal violet at room temperature for 20 min. Following staining, the cells are rinsed with PBS until the purple colour is completely washed away, and then air-dried for image acquisition.

The next data set deals with MCF7 cells. The following applies: cited from earlier work.

In general, melting point refers to the temperature of the solid-liquid transition.

Molecules are shown by their SMILES. “Also recorded” adds a separate entry of the source. Where two headings read alike, the source gives them in different places.

T1 sequence (Q05397 whole entry, species assumed): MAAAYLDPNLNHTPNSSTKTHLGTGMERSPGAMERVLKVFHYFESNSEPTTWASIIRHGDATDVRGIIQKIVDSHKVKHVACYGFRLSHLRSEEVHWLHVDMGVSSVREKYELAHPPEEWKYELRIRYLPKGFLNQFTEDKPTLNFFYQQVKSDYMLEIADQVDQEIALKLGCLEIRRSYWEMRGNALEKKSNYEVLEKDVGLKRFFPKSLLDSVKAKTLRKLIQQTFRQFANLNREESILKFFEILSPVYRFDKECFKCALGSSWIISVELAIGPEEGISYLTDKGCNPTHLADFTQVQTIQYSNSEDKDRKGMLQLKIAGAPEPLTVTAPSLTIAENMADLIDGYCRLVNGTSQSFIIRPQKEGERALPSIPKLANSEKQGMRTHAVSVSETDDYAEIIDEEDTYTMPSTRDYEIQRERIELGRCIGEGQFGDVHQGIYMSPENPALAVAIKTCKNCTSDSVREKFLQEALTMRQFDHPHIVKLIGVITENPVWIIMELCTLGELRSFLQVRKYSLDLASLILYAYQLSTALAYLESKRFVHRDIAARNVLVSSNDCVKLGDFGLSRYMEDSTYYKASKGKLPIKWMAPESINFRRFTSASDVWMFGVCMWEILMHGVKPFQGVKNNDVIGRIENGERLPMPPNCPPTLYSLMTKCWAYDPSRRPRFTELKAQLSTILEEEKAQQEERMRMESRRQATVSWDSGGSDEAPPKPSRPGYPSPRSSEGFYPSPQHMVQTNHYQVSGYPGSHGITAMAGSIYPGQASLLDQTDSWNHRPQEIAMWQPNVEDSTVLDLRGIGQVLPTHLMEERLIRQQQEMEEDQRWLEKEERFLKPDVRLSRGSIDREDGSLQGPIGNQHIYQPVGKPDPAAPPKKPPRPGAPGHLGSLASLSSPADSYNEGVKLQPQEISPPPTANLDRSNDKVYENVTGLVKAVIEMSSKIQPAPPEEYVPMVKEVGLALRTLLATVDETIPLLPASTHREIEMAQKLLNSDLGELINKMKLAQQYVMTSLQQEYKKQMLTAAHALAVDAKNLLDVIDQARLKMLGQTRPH
ROS1, sequence (P08922 1883-2347 limits assumed): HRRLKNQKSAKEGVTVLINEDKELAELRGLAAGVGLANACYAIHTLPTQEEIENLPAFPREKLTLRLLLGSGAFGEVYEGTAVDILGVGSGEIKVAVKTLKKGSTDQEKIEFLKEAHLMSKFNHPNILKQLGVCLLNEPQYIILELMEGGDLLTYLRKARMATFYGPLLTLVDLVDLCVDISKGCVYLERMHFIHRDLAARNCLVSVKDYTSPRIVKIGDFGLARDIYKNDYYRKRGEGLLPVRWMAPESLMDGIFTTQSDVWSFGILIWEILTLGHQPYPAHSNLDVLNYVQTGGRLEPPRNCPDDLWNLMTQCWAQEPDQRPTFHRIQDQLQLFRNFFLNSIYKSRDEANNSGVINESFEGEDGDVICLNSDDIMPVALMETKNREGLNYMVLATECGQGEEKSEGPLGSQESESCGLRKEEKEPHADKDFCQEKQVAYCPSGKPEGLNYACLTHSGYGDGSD
EGFR, sequence (P00533 25-1210, species assumed): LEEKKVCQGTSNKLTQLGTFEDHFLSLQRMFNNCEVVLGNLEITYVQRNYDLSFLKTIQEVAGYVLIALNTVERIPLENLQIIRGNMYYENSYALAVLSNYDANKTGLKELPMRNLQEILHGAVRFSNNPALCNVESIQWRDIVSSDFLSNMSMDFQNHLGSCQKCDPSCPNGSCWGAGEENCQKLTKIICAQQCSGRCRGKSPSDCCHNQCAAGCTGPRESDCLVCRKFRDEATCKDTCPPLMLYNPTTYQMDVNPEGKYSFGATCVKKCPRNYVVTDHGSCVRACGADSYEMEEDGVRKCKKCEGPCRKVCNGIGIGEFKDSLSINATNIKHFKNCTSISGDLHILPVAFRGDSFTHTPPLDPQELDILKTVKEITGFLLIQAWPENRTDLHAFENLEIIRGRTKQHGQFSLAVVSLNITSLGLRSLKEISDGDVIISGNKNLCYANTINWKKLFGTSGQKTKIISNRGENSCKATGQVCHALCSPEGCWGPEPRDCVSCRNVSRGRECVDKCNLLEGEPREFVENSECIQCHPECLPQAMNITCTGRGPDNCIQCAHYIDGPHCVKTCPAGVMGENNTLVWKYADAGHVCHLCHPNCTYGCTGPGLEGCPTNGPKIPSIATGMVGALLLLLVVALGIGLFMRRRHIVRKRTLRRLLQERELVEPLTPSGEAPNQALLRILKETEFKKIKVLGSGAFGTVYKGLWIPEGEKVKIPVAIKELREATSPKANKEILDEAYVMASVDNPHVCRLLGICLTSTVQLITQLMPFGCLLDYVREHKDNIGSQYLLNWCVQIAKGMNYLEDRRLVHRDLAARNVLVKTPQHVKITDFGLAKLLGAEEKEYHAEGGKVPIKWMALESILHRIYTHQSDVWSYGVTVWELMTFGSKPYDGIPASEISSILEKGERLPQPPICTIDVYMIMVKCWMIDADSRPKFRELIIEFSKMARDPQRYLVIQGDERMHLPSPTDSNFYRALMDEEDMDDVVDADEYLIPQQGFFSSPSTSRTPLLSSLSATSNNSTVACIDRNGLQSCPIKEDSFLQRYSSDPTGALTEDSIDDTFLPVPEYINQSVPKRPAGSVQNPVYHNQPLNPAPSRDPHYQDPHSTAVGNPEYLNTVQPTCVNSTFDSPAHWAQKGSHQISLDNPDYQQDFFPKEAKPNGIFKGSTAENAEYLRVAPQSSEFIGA
ALK, sequence (Q9UM73 19-1620, species assumed): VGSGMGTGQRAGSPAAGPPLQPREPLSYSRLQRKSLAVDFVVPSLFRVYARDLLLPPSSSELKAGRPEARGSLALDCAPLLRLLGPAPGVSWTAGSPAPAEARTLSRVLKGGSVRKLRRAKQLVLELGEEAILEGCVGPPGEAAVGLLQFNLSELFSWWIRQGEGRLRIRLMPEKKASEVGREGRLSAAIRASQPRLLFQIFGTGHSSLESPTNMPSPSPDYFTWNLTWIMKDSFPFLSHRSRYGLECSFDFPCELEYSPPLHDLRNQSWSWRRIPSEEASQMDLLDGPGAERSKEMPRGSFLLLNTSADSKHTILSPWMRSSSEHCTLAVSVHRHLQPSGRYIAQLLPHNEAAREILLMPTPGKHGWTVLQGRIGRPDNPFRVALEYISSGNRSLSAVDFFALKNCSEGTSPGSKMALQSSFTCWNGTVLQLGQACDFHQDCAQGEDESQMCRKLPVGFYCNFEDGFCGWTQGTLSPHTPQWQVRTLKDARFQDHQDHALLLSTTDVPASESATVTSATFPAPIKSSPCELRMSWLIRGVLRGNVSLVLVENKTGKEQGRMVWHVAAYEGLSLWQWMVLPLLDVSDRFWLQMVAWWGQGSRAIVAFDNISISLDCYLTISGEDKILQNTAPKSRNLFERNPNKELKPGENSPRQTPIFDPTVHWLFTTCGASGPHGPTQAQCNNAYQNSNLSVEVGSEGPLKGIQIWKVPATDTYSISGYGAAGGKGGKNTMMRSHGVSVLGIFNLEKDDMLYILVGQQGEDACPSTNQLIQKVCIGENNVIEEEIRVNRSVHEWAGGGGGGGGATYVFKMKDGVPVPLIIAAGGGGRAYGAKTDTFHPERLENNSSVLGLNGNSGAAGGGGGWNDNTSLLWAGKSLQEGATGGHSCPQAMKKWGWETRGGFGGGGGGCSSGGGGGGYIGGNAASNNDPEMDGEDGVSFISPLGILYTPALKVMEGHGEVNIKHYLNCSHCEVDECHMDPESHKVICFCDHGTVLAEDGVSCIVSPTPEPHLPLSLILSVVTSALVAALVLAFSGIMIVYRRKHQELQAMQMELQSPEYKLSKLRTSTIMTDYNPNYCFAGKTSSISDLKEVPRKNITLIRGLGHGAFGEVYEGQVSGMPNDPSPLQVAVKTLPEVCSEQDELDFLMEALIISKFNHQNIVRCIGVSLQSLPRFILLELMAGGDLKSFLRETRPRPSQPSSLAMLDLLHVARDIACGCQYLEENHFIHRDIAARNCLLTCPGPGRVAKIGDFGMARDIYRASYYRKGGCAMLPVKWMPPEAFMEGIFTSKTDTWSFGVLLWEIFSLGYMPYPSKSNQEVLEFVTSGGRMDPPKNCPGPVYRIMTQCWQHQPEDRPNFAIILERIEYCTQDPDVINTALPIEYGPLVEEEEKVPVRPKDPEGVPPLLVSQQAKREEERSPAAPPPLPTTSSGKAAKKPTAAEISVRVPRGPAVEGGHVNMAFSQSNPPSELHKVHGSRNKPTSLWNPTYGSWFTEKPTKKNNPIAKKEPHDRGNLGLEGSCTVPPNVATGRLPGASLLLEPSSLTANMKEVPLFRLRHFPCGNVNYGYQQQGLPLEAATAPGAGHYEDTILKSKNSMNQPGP

`CNC(=O)c1ccccc1Nc1nc(N/N=C/c2ccc(F)cc2)ncc1Cl` [14f, (E)-2-((5-chloro-2–(2-(4-fluorobenzylidene)hydrazineyl)pyrimidin-4-yl)amino)-N-methylbenzamide] showed a melting point of 176.1 to 177.8 °C. Besides, the IC50 at FAK [1] was 35 nM. Further, in data set [2], the “wound healing (cell migration)” value is listed as “significant inhibitory effect on cell migration”. The IC50 in data set [3] (Homo sapiens, TPC1, 48 h, MTT assay, 48 h, average with SD (n = 3, duplicate), read-out: IC50 (μM), antiproliferative activity against thyroid cancer cells TPC-1) stood at 0.113 ± 0.003 µM. Besides, the “times more potent than TAE-226 in TPC-1 cells” value in data set [3] (ratio of IC50 values, TPC-1 cells) was “approximately 8.57 times”. In addition, in data set [4], the “number of cells that traversed through the membrane” value was “significant reduction”. For the same compound, the IC50 at EGFR is more than 1000 nmol/L. Further, the IC50 at ALK stood at 285 nmol/L. Moreover, at ROS1, the IC50 turned out to be 593 nmol/L. Besides, at FAK [5], the “expression level of FAK” value is “did not affect the expression level of FAK; also recorded: no significant changes”. Further, the “number of cells positive for EdU” value in data set [6] is listed as “significant reduction”. In addition, the cell cycle distribution result in the data set with TPC-1 cells [7] is listed as “pronounced G1 phase arrest”. In the data set with TPC-1 cells [8], the “concentration from which colony formation is discernibly inhibited” value is listed as not below 100 nmol/L.

Consider `C/C(=N\N=c1/[nH]c2cc(F)c(F)cc2n1C)c1ncccn1` [compound 8], for which the IC50 with MCF7 cells (read-out: IC50, antiproliferative activity against MCF7 cells) was 3.3 nM.

Consider `Cn1c2nc(N/N=C/c3cccc(Br)c3)nc(=O)c-2cc2ccccc21` [compound 9], for which the IC50 with MCF7 cells (read-out: IC50, proliferative activity of MCF7 cells) is 0.1 nM.
